Experimental data from patent US8436039B2, “Inhibitors of the ATB(0,+) transporter and uses thereof” (Georgia Health Sciences University Research Institute, Inc., priority 2008, dated 2013).

Assays:
[1] = molecular target: T1, human ATB^0,+ (Homo sapiens, UniProt Q9UN76); experiment: L-tryptophan-induced inward currents in X. laevis oocytes expressing human ATB^0,+; assay type: cell-based; settings: 1 mM added simultaneously with 20 μM L-tryptophan
T1 construct: The human ATB^0,+ cDNA was cloned from an MCF7 cell (a human mammary epithelial cancer cell line) cDNA library; expressed in transfected cells; host or cells: Xenopus laevis oocytes injected with 50 ng capped cRNA
T1 sequence (Q9UN76 1-642): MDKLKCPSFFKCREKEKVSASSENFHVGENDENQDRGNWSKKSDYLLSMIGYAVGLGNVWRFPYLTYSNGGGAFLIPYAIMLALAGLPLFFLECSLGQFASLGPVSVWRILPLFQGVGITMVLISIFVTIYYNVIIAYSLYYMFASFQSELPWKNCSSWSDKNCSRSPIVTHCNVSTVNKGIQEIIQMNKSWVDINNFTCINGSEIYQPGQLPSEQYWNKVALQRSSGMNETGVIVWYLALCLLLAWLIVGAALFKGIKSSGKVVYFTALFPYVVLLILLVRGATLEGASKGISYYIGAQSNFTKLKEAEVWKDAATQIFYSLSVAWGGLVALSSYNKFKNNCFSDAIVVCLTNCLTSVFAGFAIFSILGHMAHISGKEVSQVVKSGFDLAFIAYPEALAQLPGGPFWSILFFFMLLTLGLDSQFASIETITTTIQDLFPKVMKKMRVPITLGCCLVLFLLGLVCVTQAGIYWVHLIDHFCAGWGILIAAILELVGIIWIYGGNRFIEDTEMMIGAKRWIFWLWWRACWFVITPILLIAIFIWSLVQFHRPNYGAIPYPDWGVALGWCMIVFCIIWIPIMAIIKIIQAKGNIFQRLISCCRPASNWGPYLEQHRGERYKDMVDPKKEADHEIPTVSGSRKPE
Procedure: Capped cRNA from the cloned mouse or human ATB^0,+ cDNA was synthesized using the mMESSAGE mMACHTNE kit (Ambion, Austin, Tex., U.S.A.). Mature oocytes (stage IV or V) from X. laevis were injected with 50 ng of cRNA. Uninjected oocytes served as controls. The oocytes were used for electrophysiological studies 3-6 days after cRNA injection. Electrophysiological studies were performed by the two-microelectrode voltage-clamp method (Nakanishi et al., 2001, J. Physiol. 532, 297-304). Oocytes were superfused with an NaCl-containing buffer (100 mM NaCl, 2 mM KCl, 1 mM MgCl2, 1 mM CaCl2, 3 mM Hepes, 3 mM Mes and 3 mM Tris, pH 7.5), followed by the same buffer containing tryptophan derivatives. The membrane potential was clamped at −50 mV. The differences between the steady-state currents measured in the presence and absence of substrates were considered as the substrate-induced currents. In the analysis of the saturation kinetics of substrate-induced currents, the kinetic parameter K0.5 (i.e. substrate concentration necessary for induction of half-maximal current) was calculated by fitting the values of the substrate-induced currents to the Michaelis-Menten equation. The Na^+ and Cl^− activation kinetics of substrate-induced currents were analysed by measuring the substrate-specific currents in the presence of increasing concentrations of Na^+ (concentration of Cl^− kept constant at 100 mM) or in the presence of increasing concentrations of Cl^− (concentration of Na^+ kept constant at 100 mM). In these experiments, the composition of the superfusion buffer was modified to contain 2 mM potassium gluconate, 1 mM MgSO4 and 1 mM calcium gluconate in place of KCl, MgCl2 and CaCl2 respectively. The data from these experiments were analysed by the Hill equation to determine the Hill coefficient (h; number of Na^+ and Cl^− ions involved in the activation process). The kinetic parameters were determined by using the commercially available computer program Sigma Plot, version 6.0 (SPSS, Chicago, Ill., U.S.A.). […]

[2] = tested on: HMEC, HBL100 and MCF10A cells; experiment: Colony formation assay, non-malignant ATB^0,+-negative mammary epithelial cell lines; assay type: cell-based, human; settings: 2.5 mM, 12 days
Procedure: The colony formation assay was performed as described previously (Thangaraju et al., 2006, Cancer Res. 66, 11560-11564). Mammary epithelial cells were seeded on to 6-well plates (10000 cells per well) in DMEM. After 24 hours, cells were exposed to varying concentrations of α-methyl-DL-tryptophan or 1-methyl-DL-tryptophan for 2 weeks, changing medium every 2 days. Cells were washed with PBS and fixed in 100% (v/v) methanol for 30 min followed by staining with KaryoMAX Giemsa stain for one hour. The wells were washed with water and dried overnight at room temperature. Finally, the dye in the wells was dissolved with 1% SDS in 0.2 M NaOH for one hour, and the attenuance of the released dye was measured at 630 nm.
The present studies have identified α-methyl-DL-tryptophan as a blocker of ATB^0,+ and also have shown that the compound is able to block the transport of amino acids via ATB^0,+ under conditions that stimulate those in vivo in terms of amino acid concentrations. […] For this, we treated the human mammary epithelial cell lines with 2.5 mM α-methyl-DL-tryptophan in the presence of regular culture medium for 12 days in clonogenic assay and quantified the colony formation for each cell line in the presence and absence of α-methyl-DL-tryptophan (FIG. 8). […]

Row | SMILES | effect on inward currents induced by 20 μM L-tryptophan [1] | effect on ability to form colonies [2]
1 | Cn1cc(CC(N)C(=O)O)c2ccccc21 (racemic) [1-methyl-DL-tryptophan] | greater than that with 20 μM L-tryptophan alone | –
2 | CC(N)(Cc1c[nH]c2ccccc12)C(=O)O (racemic) [α-methyl-DL-tryptophan] | blocked completely | no effect
